Here are results for 2 compounds from PMC8591608, “DNDI-6148: A Novel Benzoxaborole Preclinical Candidate for the Treatment of Visceral Leishmaniasis” (Journal of Medicinal Chemistry, 2021).

Molecules are shown by their SMILES. A value given as a limit tells only on which side of the number the result lay.

For data set [1], the system named is L. infantum and L. donovani. As to the kind of experiment: Hamster models of infection (summary statement). Particulars: in vivo efficacy in hamster models of infection. The text has this: Female golden hamsters were randomly allocated to experimental groups of six animals each, based on body weight. At the start of the experiment (Day 0), each animal was infected with L. infantum or L. donovani inoculum, delivered by intracardial injection. Six hamsters were assigned to the vehicle-treated, infected control group. Six hamsters were assigned per group (1 group/compound) for the evaluation of compound and miltefosine. At Day 21 postinfection (21 dpi), all animals in each group were dosed orally for five (or ten) consecutive days (21–25 dpi): compound was dosed at 25–50 mg/kg b.i.d.; miltefosine was dosed at 40 mg/kg q.d. At Day 35 (10 days after the final oral dose), all animals were euthanized and autopsies were conducted. The study evaluated the following parameters. • 1. Adverse effects: all animals were observed daily for the occurrence/presence of adverse effects. • 2. […] Parasite burden: amastigote burdens in each target organ (liver, spleen, and bone marrow) were determined at Day 35. […] Impression smears were stained with Giemsa for microscopic examination of the total amastigote burden, defined as the mean number of amastigotes per cell multiplied by the number of cells counted (minimum 500 nuclei); the results were expressed as a percentage reduction in amastigote burden compared to vehicle-treated, infected control animals.

Data set [2] is described as follows: Plasma-protein binding, mouse. It counts as in vitro ADME. The following applies: Balb/c, pH 7.4. Here is the method:
(§1) Tests were conducted by WuXi AppTec, Co., China, using the equilibrium dialysis method and a 96-well plate format. The test compound (at 2 μM, in triplicate) in solution in plasma (Balb/c mouse, golden (Syrian) hamster, Sprague-Dawley rat, Beagle dog or human) was dialyzed against 100 mM phosphate-buffered saline (pH 7.4) on a rotating plate incubated for 6 h at 37 °C. Following the precipitation of protein with acetonitrile or acetonitrile/methanol containing both 1% phosphoric acid, the amount of compound present in each compartment was quantified by LC-MS/MS.

Data set [3] is described as follows: Plasma-protein binding, rat. In kind it is in vitro ADME. Particulars: Sprague-Dawley, pH 7.4. As to the method: as §1
The next data set deals with MDR1. The data set can be described thus: in vitro. In kind it is in vitro ADME. Particulars: dog. Here is the method: Bidirectional permeability tests with MDCK-MDR1 cells were performed by WuXi AppTec, Co., China. The test compound, at a concentration of 2 μM in 0.4% DMSO/HBSS buffer with 10 mM HEPES pH 7.4, was applied to the apical or basolateral side of the cell monolayer. Permeation of the compound from A to B direction or B to A direction was determined in triplicate over a 150 min incubation at 37 °C and 5% CO2 (95% humidity). Test and reference compounds were quantified by LC-MS/MS analysis based on the peak area ratio of analyte/internal standard.

The nature of data set [4]: Hepatocyte stability, rat. Particulars: Sprague-Dawley, cryopreserved rat hepatocytes. In kind it is in vitro ADME. As to the method: (§2) Tests were performed by WuXi AppTec, China. Following a viability check of cryopreserved hepatocytes from Sprague-Dawley rat, Beagle dog, or human, test compounds (at 1 μM) or positive controls 7-ethoxycoumarin and 7-hydroxycoumarin (at 3 μM) were incubated at 37 °C, 5% CO2 with hepatocytes in Williams’ Medium E. Following incubation of 15, 30, 60, 90, 120, 180, and 240 min, reactions were stopped by the addition of acetonitrile, the samples were centrifuged, and LC-MS/MS analysis was conducted using tolbutamide as an internal standard.

Data set [5] in a line: Hepatocyte stability, dog. In kind it is in vitro ADME. The following applies: Beagle, cryopreserved dog hepatocytes. Here is the method:
as §2

In data set [6] the test system is T. brucei trypanosomes maintaining a mutated version of CPSF3 (Asn232His). The data set can be described thus: Drug sensitivity, T. brucei with mutated CPSF3. In kind it is cell-based. As to the method: (§3) The clonal L. donovani cell line LdBOB (derived from MHOM/SD/62/1S-CL2D) was grown as promastigotes at 28 °C, as described previously. Bloodstream form T. brucei MiTat 1.2 clone 221a and its derived subline, 2T1, were cultured at 37 °C in the presence of 5% CO2 in HMI9-T medium, as described previously. T. brucei cell lines overexpressing CPSF3 and overexpressing a mutated version of CPSF3 (Asn232His) were generated as part of a previous study and cultured as described.[19]
(§4) Drug sensitivity assays with wild-type and transgenic T. brucei and L. donovani cell lines were carried out as previously described.[31],[32]

The subject of data set [7] is trypanosomes overexpressing the wild-type version of CPSF3. The data set can be described thus: Drug sensitivity, T. brucei overexpressing CPSF3. In kind it is cell-based. Here is the method: as §3, §4
Data set [8] deals with wild-type L. donovani promastigotes. The data set can be described thus: Drug sensitivity, wild-type L. donovani promastigotes. In kind it is cell-based. The following applies: Leishmania donovani, Figure 2D. Here is the method:
as §3, §4

Data set [9] concerns L. donovani clones, CPSF3 Asn219His/Glu229Val. The data set can be described thus: Drug sensitivity, L. donovani CRISPR-Cas9 edited CPSF3 Asn219His/Glu229Val. It counts as cell-based. As to the method: A cell line constitutively expressing Cas9 and T7 RNA polymerase was generated by transfecting 4 × 10^7 promastigotes with the pTB007 vector (10 μg), as previously described.[29] Expression of Cas9 in selected clones was confirmed by western blotting (Figure S1). In addition, the CRISPR-Cas9 system in these parasites was confirmed as functional following the successful tagging of the flagellar protein PF16 with mNeonGreen, as previously described.[29]
To introduce specific mutations into CPSF3, 3 × 10^6 promastigotes expressing Cas9 and T7 RNA were resuspended in a 110 μL of Human T-Cell Nucleofector reagent and transfected with 18 μL of sgRNA and 4 μg of template using the Amaxa Nucleofector electroporator (program V-033). sgRNA was produced according to the previously established protocol from the Gluenz lab,[30] in which the scaffold primer G00 and a gene-specific forward primer (FwsgRNA) were used (Table S1). Twenty-four hours following transfection, DNDI-6148 was added to cultures at 6 μM. Drug-selected populations were cloned by limiting dilution, EC50s were determined, and genomic DNA was extracted. The CPSF3 gene from CRISPR-edited parasites was amplified by PCR, and the resulting products were sequenced.
as §4

Another data set is described as follows: in vivo. Particulars: both, Sprague-Dawley, rat.

What is called fraction unbound is the share of the substance not bound to proteins or other matrix. Low readings indicate extensive binding, high ones weak binding. Usually Papp A→B stands for the apparent permeability from the apical to the basolateral side of a cell layer. High values mean fast passage, low ones slow passage. For orientation: Papp B→A means the apparent permeability from the basolateral to the apical side of a cell layer. Usually efflux ratio stands for a quotient of directional permeabilities that is used to spot active efflux. A word on the hepatocyte CLint: it is the capacity of the preparation to metabolise the compound, expressed as a volume cleared per time. The low end stands for slow turnover, the high end for rapid turnover. Usually EC50 stands for the concentration that produces a half-maximal response. A higher EC50 goes with lower potency in that assay. Take `Cc1c(C(=O)Nc2ccc3c(c2)B(O)OC3)nnn1-c1ccccn1` [Compound 23, N-(1-Hydroxy-1,3-dihydrobenzo[c][1,2]oxaborol-6-yl)-5-methyl-1-(pyridin-2-yl)-1H-1,2,3-triazole-4-carboxamide]: in [1], the “reduction in parasite burden” value is reported as above 98%. Moreover, the fraction unbound at 6 h, 2 µM in [2] is 0.07; in [3], 0.08. Further, the Papp A→B at 150 min, 2 μM in the data set with MDR1 (MDCK-MDR1, pH 7.4) worked out at 17.1 ×10⁻⁶ cm/s. In the data set on MDR1 (MDCK-MDR1, pH 7.4), this compound yielded an apparent permeability from basolateral to apical (Papp B→A) at 150 min, 2 μM of 11.6 ×10⁻⁶ cm/s. Besides, the efflux ratio at 150 min, 2 μM in the data set with MDR1 (MDCK-MDR1, pH 7.4) was 0.68. Moreover, the efflux ratio at 2.5 h, 2 µM with MDR1 (MDCK-MDR1, pH 7.4) is 0.7. In addition, the recovery at 150 min, 2 μM was 71.1% in the data set on MDR1 (MDCK-MDR1, pH 7.4, Mean total recovery A to B) and 87.8% in the data set on MDR1 (MDCK-MDR1, pH 7.4, Mean total recovery B to A). Further, the hepatocyte CLint at 1 μM in data set [4] was found to be 0.7 µL/min/1e6 cells; in data set [5], 2.4 µL/min/1e6 cells. Further, the EC50 is 90 ± 3.4 nM in data set [6] (Trypanosoma brucei), 172 ± 3 nM in data set [7] (Trypanosoma brucei), 411 ± 12 nM in [8] and 2.83 ± 0.139 mM in [9] (Leishmania donovani). Moreover, the “fold less sensitive compared to wild-type” value is recorded as 1.8 fold in data set [6] (bloodstream trypanosomes, CPSF3 Asn232His) and 2.9 fold in data set [7] (trypanosomes overexpressing wild-type CPSF3). For the same compound, the “Fold change (relative to WT)” value in [9] (CRISPR-Cas9 edited Asn219His/Glu229Val, listed as DNDI-6148) is on record as above 5 fold.

What is called NOAEL is the highest tested level that showed no adverse finding. In the case of `Cc1c(-c2ccccn2)coc1C(=O)Nc1ccc2c(c1)B(O)OC2` [Compound 28, N-(1-Hydroxy-1,3-dihydrobenzo[c][1,2]oxaborol-6-yl)-3-methyl-4-(pyridin-2-yl)furan-2-carboxamide], in the data set “in vivo”, the NOAEL at 14 days was below 12.5 mg/kg.
